Laboratory results published in patent publication US20200390100A1, “SUBSTITUTED N-HETEROCYCLYL- AND N-HETEROARYL-TETRAHYDROPYRIMIDINONES AND THE SALTS THEREOF, AND THE USE OF SAME AS HERBICIDAL ACTIVE SUBSTANCES” (Bayer Aktiengesellschaft, priority 2017, published 2020).

What was measured:
Abutilon theophrasti [1] = test: Post-emergence herbicidal action, greenhouse, 320 g/ha; format: in vivo; details: application rate 320 g/ha, rated visually after about 3 weeks vs untreated controls
In short: (§1)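 Plants treated post-emergence at the one-leaf stage, 2 to 3 weeks after sowing in sandy loam, with WP or EC formulations plus 0.5% additive at 320 g/ha. Visual rating about 3 weeks later versus untreated controls (100% = dead, 0% = like control).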

Amaranthus retroflexus [2] = test: as above; format: in vivo; details: application rate 320 g/ha, rated visually after about 3 weeks vs untreated controls
In short: as §1

Hordeum murinum [3] = test: as above; format: in vivo; details: application rate 320 g/ha, rated visually after about 3 weeks vs untreated controls
In short: as §1

Matricaria inodora [4] = test: as above; format: in vivo; details: application rate 320 g/ha, rated visually after about 3 weeks vs untreated controls
In short: as §1

Pharbitis purpurea [5] = test: as above; format: in vivo; details: application rate 320 g/ha, rated visually after about 3 weeks vs untreated controls
In short: as §1

Polygonum convolvulus [6] = test: as above; format: in vivo; details: application rate 320 g/ha, rated visually after about 3 weeks vs untreated controls
In short: as §1

Setaria viridis [7] = test: as above; format: in vivo; details: application rate 320 g/ha, rated visually after about 3 weeks vs untreated controls
In short: as §1

Stellaria media [8] = test: as above; format: in vivo; details: application rate 320 g/ha, rated visually after about 3 weeks vs untreated controls
In short: as §1

Viola tricolor [9] = test: as above; format: in vivo; details: application rate 320 g/ha, rated visually after about 3 weeks vs untreated controls
In short: as §1

Abutilon theophrasti [10] = test: Pre-emergence herbicidal action, greenhouse, 320 g/ha; format: in vivo; details: application rate 320 g/ha, scored visually after about 3 weeks vs untreated controls
In short: (§2)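 Seeds were sown in pots and covered with soil. WP or EC formulations were sprayed onto the soil surface as aqueous suspension or emulsion with 0.5% additive. Damage was scored visually after about 3 weeks as % activity against untreated controls (100% = plants dead, 0% = like control).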

Alopecurus myosuroides = test: as above; format: in vivo; details: application rate 320 g/ha, scored visually after about 3 weeks vs untreated controls
In short: as §2

Amaranthus retroflexus [11] = test: as above; format: in vivo; details: application rate 320 g/ha, scored visually after about 3 weeks vs untreated controls
In short: as §2

Avena fatua = test: as above; format: in vivo; details: application rate 320 g/ha, scored visually after about 3 weeks vs untreated controls
In short: as §2

Echinochloa crus-galli [12] = test: as above; format: in vivo; details: application rate 320 g/ha, scored visually after about 3 weeks vs untreated controls
In short: as §2

Hordeum murinum [13] = test: as above; format: in vivo; details: application rate 320 g/ha, Table B14
In short: as §2

Matricaria inodora [14] = test: as above; format: in vivo; details: application rate 320 g/ha, scored visually after about 3 weeks vs untreated controls
In short: as §2

Pharbitis purpurea [15] = test: as above; format: in vivo; details: application rate 320 g/ha, Table B12
In short: as §2

Polygonum convolvulus [16] = test: as above; format: in vivo; details: application rate 320 g/ha, scored visually after about 3 weeks vs untreated controls
In short: as §2

Setaria viridis [17] = test: as above; format: in vivo; details: application rate 320 g/ha, Table B11
In short: as §2

Stellaria media [18] = test: as above; format: in vivo; details: application rate 320 g/ha, scored visually after about 3 weeks vs untreated controls
In short: as §2

Veronica persica [19] = test: as above; format: in vivo; details: application rate 320 g/ha, Table B13
In short: as §2

Viola tricolor [20] = test: as above; format: in vivo; details: application rate 320 g/ha, Table B8
In short: as §2

Digitaria sanguinalis [21] = test: Post-emergence herbicidal action, greenhouse, 320 g/ha; format: in vivo; details: application rate 320 g/ha, rated visually after about 3 weeks vs untreated controls
In short: as §1

Abutilon theophrasti [22] = test: Herbicidal pre-emergence action (Part 2), 1280 g/ha; format: in vivo; details: application rate 1280 g/ha, scored visually after about 3 weeks, Table D5
In short: (§3)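 Pre-emergence test: monocot and dicot weed seeds were sown in sandy loam, and the soil surface was sprayed with WP or EC formulations at 1280 g/ha (600 L/ha water, 0.5% additive). After about 3 weeks in the greenhouse, damage was visually scored as percent versus untreated controls (100% = dead).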

Amaranthus retroflexus [23] = test: as above; format: in vivo; details: application rate 1280 g/ha, scored visually after about 3 weeks, Table D6
In short: as §3

Echinochloa crus-galli [24] = test: as above; format: in vivo; details: application rate 1280 g/ha, scored visually after about 3 weeks, Table D1
In short: as §3

Lolium rigidum = test: as above; format: in vivo; details: application rate 1280 g/ha, scored visually after about 3 weeks, Table D2
In short: as §3

Matricaria inodora [25] = test: as above; format: in vivo; details: application rate 1280 g/ha, scored visually after about 3 weeks, Table D7
In short: as §3

Poa annua = test: as above; format: in vivo; details: application rate 1280 g/ha, scored visually after about 3 weeks, Table D3
In short: as §3

Setaria viridis [26] = test: as above; format: in vivo; details: application rate 1280 g/ha, scored visually after about 3 weeks, Table D4
In short: as §3

Stellaria media [27] = test: as above; format: in vivo; details: application rate 1280 g/ha, scored visually after about 3 weeks, Table D8
In short: as §3

Veronica persica [28] = test: Post-emergence herbicidal action, greenhouse, 320 g/ha; format: in vivo; details: application rate 320 g/ha, rated visually after about 3 weeks vs untreated controls
In short: as §1

photosystem II (PS II) = biological target: T1, photosystem II (PS II) (Spinacia oleracea, UniProt P69560); test: Measurement of PS II activity in thylakoid membranes (DCPIP reduction); format: biochemical, spinach; details: PS II activity in spinach thylakoid membranes, Table E1; read-out: Effect
T1 construct: the chloroplasts were osmotically ruptured and the thylakoid membranes were then obtained by centrifugation; from tissue; host or cells: fresh spinach leaves; thylakoid membrane preparation from isolated chloroplasts
Procedure: Cooled fresh spinach leaves were comminuted and homogenized in 50 mM phosphate buffer, pH 6.8. 10 mM KCl, 0.34 M sucrose (sucrose buffer) (blender, 1 g of plant material/ml). The homogenate was subsequently filtered through 4 layers of Miracloth and the chloroplasts were isolated by centrifugation, i.e. 10 min of centrifugation at 4400×g (4° C.). The sediment was suspended in 25 ml of sucrose buffer and re-centrifuged for 10 min at 4400×g (4° C.). The sediment was then suspended in 40 ml of 50 mM phosphate buffer, pH 6.8, 10 mM KCl, without sucrose. In this step, the chloroplasts were osmotically ruptured and the thylakoid membranes were then obtained by centrifugation (10 min, 4400×g, 4° C.). The membrane sediment was finally suspended in about 20 ml of 50 mM phosphate buffer, pH 6.8, 10 mM KCl. Following protein determination and activity determination, the membrane suspension was divided into aliquots and frozen in liquid nitrogen. The aliquots were stored at −80° C. Under these conditions, the photosystem II preparation was storage stable for at least three months. The activity determination of photosystem II (PS II) was then carried out using the following test principle: The electron transfer from PS II to an artificial electron acceptor, 2,6-dichlorophenolindophenol (DCPIP), was measured with exposure to light. The concentration of the blue oxidized form of DCPIP was determined spectrophotometrically at wavelength λ=595 nm. […] The activity determination is carried out in microtiter plates (96 cavities) in a reaction volume of 200 μl. Here, 155 μl of dilute membrane suspension were initially charged in 50 mM of phosphate buffer, pH 6.8, 10 mM KCl. Depending on the activity of the PS II preparation, the dilution was adjusted such that the measurement of the decrease in absorption (λ=595 nm) was linear for at least 10 min. In each case 5 μl solutions of the test compounds of a concentration of 100 μM in DMSO were added to the enzyme suspension; controls contained 5 μl of DMSO; the final concentration of DMSO in the reaction batch was thus 2.5% (v/v); this concentration had no adverse effect on the enzymatic activity. On each microtiter plate, a known PS II inhibitor, for example metribuzin, was used as standard, which allowed the quality of the PS II test to be assessed. The reaction was started by addition of 40 μl DCPIP solution (600 μM in distilled water); the final concentration of DCPIP was 120 μM. Measurement of absorption is carried out over a period of 10 min at 22° C. and with exposure to light. Using metribuzin as comparative substance, the results for the efficacy of the compounds of the general formula (I) at 100 μM are stated in the table below using the following classification: ++++(inhibition≥90%), +++(90%>inhibition≥70%), ++(70%>inhibition≥50%), +(50%>inhibition≥30%).

Digitaria sanguinalis [29] = test: Pre-emergence herbicidal action, greenhouse, 320 g/ha; format: in vivo; details: application rate 320 g/ha, Table B9
In short: as §2

Amaranthus retroflexus [30] = test: Herbicidal post-emergence action (Part 2), 1280 g/ha; format: in vivo; details: application rate 1280 g/ha, rated visually after about 3 weeks, Table C5
In short: (§4)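 Greenhouse-grown weeds in sandy loam treated post-emergence at the one-leaf stage (2-3 weeks after sowing) with WP or EC formulations plus 0.5% additive at 600 L/ha water. Visual activity rated about 3 weeks later versus untreated controls, 0% (like control) to 100% (dead).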

Echinochloa crus-galli [31] = test: as above; format: in vivo; details: post-emergence (Part 2), application rate 1280 g/ha, rated visually after about 3 weeks vs untreated controls
In short: as §4

Matricaria inodora [32] = test: as above; format: in vivo; details: application rate 1280 g/ha, rated visually after about 3 weeks, Table C6
In short: as §4

Stellaria media [33] = test: as above; format: in vivo; details: application rate 1280 g/ha, rated visually after about 3 weeks, Table C7
In short: as §4

| Compound | Abutilon theophrasti (efficacy in %) (Abutilon theophrasti [1]) | Amaranthus retroflexus (efficacy in %) (Amaranthus retroflexus [2]) | Hordeum murinum (efficacy in %) (Hordeum murinum [3]) | Matricaria inodora (efficacy in %) (Matricaria inodora [4]) | Pharbitis purpurea (efficacy in %) (Pharbitis purpurea [5]) | Polygonum convolvulus (efficacy in %) (Polygonum convolvulus [6]) | Stellaria media (efficacy in %) (Stellaria media [8]) | Viola tricolor (efficacy in %) (Viola tricolor [9]) | Abutilon theophrasti (efficacy in %) (Abutilon theophrasti [10]) | Alopecurus myosuroides (efficacy in %) (Alopecurus myosuroides) | Amaranthus retroflexus (efficacy in %) (Amaranthus retroflexus [11]) | Avena fatua (efficacy in %) (Avena fatua) | Echinochloa crus-galli (efficacy in %) (Echinochloa crus-galli [12]) | Hordeum murinum (efficacy in %) (Hordeum murinum [13]) | Matricaria inodora (efficacy in %) (Matricaria inodora [14]) | Polygonum convolvulus (efficacy in %) (Polygonum convolvulus [16]) | Setaria viridis (efficacy in %) (Setaria viridis [17]) | Stellaria media (efficacy in %) (Stellaria media [18]) | Viola tricolor (efficacy in %) (Viola tricolor [20]) | Digitaria sanguinalis (efficacy in %) (Digitaria sanguinalis [21]) | other results |
| --- | --- | --- | --- | --- | --- | --- | --- | --- | --- | --- | --- | --- | --- | --- | --- | --- | --- | --- | --- | --- | --- |
| CN1CCC(OC(=O)C(C)(C)C)N(c2cc(C(C)(C)C)on2)C1=O (stereo not drawn) [I.6-162] | 100% | 80% | 90% | 100% | 90% | 100% | 100% | 100% | 100% | 90% | 100% | 90% | 100% | 90% | 100% | 90% | 100% | 100% | 100% |  | Setaria viridis (efficacy in %) (Setaria viridis [7]): 100%; Pharbitis purpurea (efficacy in %) (Pharbitis purpurea [15]): 90%; Veronica persica (efficacy in %) (Veronica persica [19]): 100% |
| CCC(=O)OC1CC2CCCN2C(=O)N1c1cc(C(C)(C)C)on1 (stereo not drawn) [I.123-162] | 100% | 100% |  | 80% |  | 100% | 100% | 100% |  |  |  |  |  |  |  |  |  |  |  | 100% | Abutilon theophrasti (Abutilon theophrasti [22]): 100%; Amaranthus retroflexus (Amaranthus retroflexus [23]): 100%; Echinochloa crus-galli (Echinochloa crus-galli [24]): 100%; Lolium rigidum (Lolium rigidum): 100%; Matricaria inodora (Matricaria inodora [25]): 100%; Poa Annua (Poa annua): 100%; Setaria viridis (Setaria viridis [26]): 100%; Stellaria media (Stellaria media [27]): 100% |
| CCCC(=O)OC1CCN(C)C(=O)N1c1cc(C(C)(C)C)on1 (stereo not drawn) [I.4-162, 3-(5-tert-Butyl-1,2-oxazol-3-yl)-1-methyl-2-oxohexahydropyrimidin-4-yl Butyrate] | 100% | 100% |  | 100% | 100% | 100% | 100% | 90% | 100% | 90% | 100% | 90% | 90% | 90% | 100% | 90% | 100% | 100% | 100% | 80% | Setaria viridis (efficacy in %) (Setaria viridis [7]): 100%; Veronica persica (efficacy in %) (Veronica persica [28]): 100%; Veronica persica (efficacy in %) (Veronica persica [19]): 100%; inhibition at 100 µM (photosystem II (PS II)): 50 to 70% |
| CC(=O)OC1CC(C)N(C)C(=O)N1c1cc(C(C)(C)C)on1 (mixture of isomers) [I.42-162] |  |  | 90% |  | 100% |  |  |  | 100% | 90% | 100% | 80% | 80% | 90% | 100% | 90% | 100% | 100% | 90% | 100% | Digitaria sanguinalis (efficacy in %) (Digitaria sanguinalis [29]): 80%; Amaranthus retroflexus (Amaranthus retroflexus [30]): 100%; Echinochloa crus-galli (Echinochloa crus-galli [31]): 100%; Matricaria inodora (Matricaria inodora [32]): 100%; Stellaria media (Stellaria media [33]): 100%; Amaranthus retroflexus (Amaranthus retroflexus [23]): 100%; Echinochloa crus-galli (Echinochloa crus-galli [24]): 100%; Matricaria inodora (Matricaria inodora [25]): 100%; Poa Annua (Poa annua): 100%; Stellaria media (Stellaria media [27]): 100% |
